Experimental data from patent US7855290B2, “Pyridine derivatives and pyrimidine derivatives (3)” (Eisai R&D Management Co., Ltd., priority 2005, dated 2010).

How the values were obtained:
[1] = system: Human gastric cancer cells (MKN-45); experiment: Inhibitory activity against the proliferation of human gastric cancer cells (MKN-45); assay type: cell-based; details: 72 h, MKN-45, 1% FBS RPMI1640, 3 days, Cell Counting Kit-8
Method in brief: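 MKN-45 cells seeded overnight in RPMI1640 with 1% FBS, then exposed to compound for 3 days at 37° C, 5% CO2. Viability read with CCK-8 after about 1.5 hrs, absorbance at 450 nm (reference 660 nm).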

HGFR = target: T1, HGFR (Homo sapiens, UniProt P08581); experiment: Inhibitory activity against the HGFR autophosphorylation using ELISA (MKN-45 cells); assay type: cell-based; details: 1 hr with test substance
T1 construct: endogenous in cells; host or cells: MKN-45 human gastric cancer cells
Method in brief: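 HGFR autophosphorylation measured by sandwich ELISA: anti-phosphotyrosine PY20 capture, anti-HGFR detection, HRP secondary, TMB read at 450 nm. Lysates came from MKN-45 cells given test substance for 1 h at 37° C in 1% FBS RPMI1640. Percent activity normalised between no-compound extract and lysis buffer alone.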

T1 sequence (P08581 25-1390): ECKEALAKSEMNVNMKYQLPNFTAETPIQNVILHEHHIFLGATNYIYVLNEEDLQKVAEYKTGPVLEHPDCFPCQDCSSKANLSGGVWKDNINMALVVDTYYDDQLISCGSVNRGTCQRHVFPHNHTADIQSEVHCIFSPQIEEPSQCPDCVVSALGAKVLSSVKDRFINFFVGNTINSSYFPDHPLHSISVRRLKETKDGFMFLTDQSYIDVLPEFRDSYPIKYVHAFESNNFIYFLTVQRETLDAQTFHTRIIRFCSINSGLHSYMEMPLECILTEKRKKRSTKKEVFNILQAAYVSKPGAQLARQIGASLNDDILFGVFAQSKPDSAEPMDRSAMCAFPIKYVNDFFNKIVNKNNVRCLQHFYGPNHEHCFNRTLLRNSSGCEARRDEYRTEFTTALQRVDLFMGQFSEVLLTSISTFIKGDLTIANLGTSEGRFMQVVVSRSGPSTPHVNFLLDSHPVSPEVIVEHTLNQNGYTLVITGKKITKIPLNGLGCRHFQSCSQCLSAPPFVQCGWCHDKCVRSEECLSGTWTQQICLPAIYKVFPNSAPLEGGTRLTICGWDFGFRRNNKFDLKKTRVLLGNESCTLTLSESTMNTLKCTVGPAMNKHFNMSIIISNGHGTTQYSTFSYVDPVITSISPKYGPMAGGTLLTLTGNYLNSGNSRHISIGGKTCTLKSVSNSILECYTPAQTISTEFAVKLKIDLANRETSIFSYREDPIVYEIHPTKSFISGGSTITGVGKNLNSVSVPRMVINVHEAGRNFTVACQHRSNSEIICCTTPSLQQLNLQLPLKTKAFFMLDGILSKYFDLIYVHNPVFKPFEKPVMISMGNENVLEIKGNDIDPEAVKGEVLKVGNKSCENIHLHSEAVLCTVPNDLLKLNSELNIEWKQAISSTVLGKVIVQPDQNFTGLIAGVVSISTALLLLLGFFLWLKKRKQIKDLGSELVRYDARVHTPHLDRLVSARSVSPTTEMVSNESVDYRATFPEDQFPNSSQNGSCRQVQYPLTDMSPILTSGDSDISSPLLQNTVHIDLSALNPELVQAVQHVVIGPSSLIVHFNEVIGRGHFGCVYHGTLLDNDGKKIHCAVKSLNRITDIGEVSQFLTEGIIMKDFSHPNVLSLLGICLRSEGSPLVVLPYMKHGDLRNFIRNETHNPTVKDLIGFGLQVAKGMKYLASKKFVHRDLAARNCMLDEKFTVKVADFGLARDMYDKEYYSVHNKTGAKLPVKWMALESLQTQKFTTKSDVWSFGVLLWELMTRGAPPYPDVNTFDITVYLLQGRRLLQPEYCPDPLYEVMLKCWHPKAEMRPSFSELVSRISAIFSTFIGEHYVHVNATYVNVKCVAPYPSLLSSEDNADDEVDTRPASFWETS

SMILES	IC50 [1]	IC50 (HGFR)
O=C(Nc1cc(Oc2ccc(NC(=O)C3(C(=O)Nc4ccc(F)cc4)CC3)cc2F)ccn1)N1CCC(N2CCCC2)CC1 [Example 10, N-(4-Fluorophenyl)-N′-{3-fluoro-4-[(2-{[(4-pyrrolidin-1-ylpiperidin-1-yl)carbonyl]amino}pyridin-4-yl)oxy]phenyl}cyclopropane-1,1-dicarboxamide]	0.042 µM	0.021 µM
O=C(Nc1cc(Oc2ccc(NC(=O)C3(C(=O)Nc4ccc(F)cc4)CC3)cc2F)ccn1)N1CC(O)C1 [Example 80, N-{3-Fluoro-4-[(2-{[(3-hydroxyazetidin-1-yl)carbonyl]amino}pyridin-4-yl)oxy]phenyl}-N′-(4-fluorophenyl)cyclopropane-1,1-dicarboxamide]	0.018 µM	0.014 µM
CN(C)C1CCN(C(=O)Nc2cc(Oc3ccc(NC(=O)C4(C(=O)Nc5ccc(F)cc5)CC4)c(F)c3)ccn2)CC1 [Example 18, N-(4-{[2-({[4-(Dimethylamino)piperidin-1-yl]carbonyl}amino)pyridin-4-yl]oxy}-2-fluorophenyl)-N′-(4-fluorophenyl)cyclopropane-1,1-dicarboxamide]	0.033 µM	0.039 µM
CN(C)CCN1CCN(C(=O)Nc2cc(Oc3ccc(NC(=O)C4(C(=O)Nc5ccc(F)cc5)CC4)cc3F)ccn2)CC1 [Example 7, N-[4-({2-[({4-[2-(Dimethylamino)ethyl]piperazin-1-yl}carbonyl)amino]pyridin-4-yl}oxy)-3-fluorophenyl]-N′-(4-fluorophenyl)cyclopropane-1,1-dicarboxamide]	0.018 µM	0.035 µM
O=C(Nc1cc(Oc2ccc(NC(=O)C3(C(=O)Nc4ccc(F)cc4)CC3)cc2F)ncn1)N1CCOCC1 [Example 35, N-[3-Fluoro-4-({6-{(morpholin-4-ylcarbonyl)amino}pyrimidin-4-yl}oxy)phenyl]-N′-(4-fluorophenyl)cyclopropane-1,1-dicarboxamide]	0.23 µM	0.12 µM
CN(C)[C@@H]1CCN(C(=O)Nc2cc(Oc3ccc(NC(=O)C4(C(=O)Nc5ccc(F)cc5)CC4)cc3)ccn2)C1 [Example 42, N-(4-{[2-({[(3R)-3-(Dimethylamino)pyrrolidin-1-yl]carbonyl}amino)pyridin-4-yl]oxy}phenyl)-N′-(4-fluorophenyl)cyclopropane-1,1-dicarboxamide]	0.06 µM	0.042 µM
CN(C)[C@@H]1CCN(C(=O)Nc2cc(Oc3ccc(NC(=O)C4(C(=O)Nc5ccc(F)cc5)CC4)c(F)c3)ccn2)C1 [Example 47, N-(4-{[2-({[(3R)-3-(Dimethylamino)pyrrolidin-1-yl]carbonyl}amino)pyridin-4-yl]oxy}-2-fluorophenyl)-N′-(4-fluorophenyl)cyclopropane-1,1-dicarboxamide]	0.027 µM	0.03 µM
CN(C)CCN1CCN(C(=O)Nc2cc(Oc3ccc(NC(=O)C4(C(=O)Nc5ccc(F)cc5)CC4)c(F)c3)ccn2)CC1 [Example 2, N-[4-({2-[({4-[2-(Dimethylamino)ethyl]piperazin-1-yl}carbonyl)amino]pyridin-4-yl}oxy)-2-fluorophenyl]-N′-(4-fluorophenyl)cyclopropane-1,1-dicarboxamide]	0.018 µM	0.021 µM
CN(C)[C@H]1CCN(C(=O)Nc2cc(Oc3ccc(NC(=O)C4(C(=O)Nc5ccccc5)CC4)c(F)c3)ccn2)C1 [Example 58, N-(4-{[2-({[(3S)-3-(Dimethylamino)pyrrolidin-1-yl]carbonyl}amino)pyridin-4-yl]oxy}-2-fluorophenyl)-N′-phenylcyclopropane-1,1-dicarboxamide]	0.025 µM	0.017 µM
CN(C)CCN1CCN(C(=O)Nc2cc(Oc3ccc(NC(=O)C4(C(=O)Nc5ccc(F)cc5)CC4)cc3)ccn2)CC1 [Example 30, N-[4-({2-[({4-[2-(Dimethylamino)ethyl]piperazin-1-yl}carbonyl)amino]pyridin-4-yl}oxy)phenyl]-N′-(4-fluorophenyl)cyclopropane-1,1-dicarboxamide]	0.039 µM	0.012 µM
CN(C)CC1CCN(C(=O)Nc2cc(Oc3ccc(NC(=O)C4(C(=O)Nc5ccc(F)cc5)CC4)c(F)c3)ccn2)CC1 [Example 8, N-[4-({2-[({4-[(Dimethylamino)methyl]piperidin-1-yl}carbonyl)amino]pyridin-4-yl}oxy)-2-fluorophenyl]-N′-(4-fluorophenyl)cyclopropane-1,1-dicarboxamide]	0.02 µM	0.014 µM
O=C(Nc1cc(Oc2ccc(NC(=O)C3(C(=O)Nc4ccc(F)cc4)CC3)cc2)ccn1)N1CCOCC1 [Example 68, N-(4-Fluorophenyl)-N′-[4-({2-[(morpholin-4-ylcarbonyl)amino]pyridin-4-yl}oxy)phenyl]cyclopropane-1,1-dicarboxamide]	0.134 µM	0.071 µM

Stronger by IC50 [1], values ahead:

IC50 [1]	IC50 (HGFR)	SMILES
0.015 µM	0.008 µM	CCN1CCC(N(C)C(=O)Nc2cc(Oc3ccc(NC(=O)C4(C(=O)Nc5ccccc5)CC4)c(F)c3)ccn2)CC1 [Example 60, N-(4-{[2-({[(1-Ethylpiperidin-4-yl)(methyl)amino]carbonyl}amino)pyridin-4-yl]oxy}-2-fluorophenyl)-N′-phenylcyclopropane-1′-dicarboxamide]
0.013 µM	0.021 µM	CN1CC(N2CCN(C(=O)Nc3cc(Oc4ccc(NC(=O)C5(C(=O)Nc6ccc(F)cc6)CC5)cc4F)ccn3)CC2)C1 [Example 22, N-(3-Fluoro-4-{[2-({[4-(1-methylazetidin-3-yl)piperazin-1-yl]carbonyl}amino)pyridin-4-yl]oxy}phenyl)-N′-(4-fluorophenyl)cyclopropane-1,1-dicarboxamide]
0.0041 µM	0.0086 µM	O=C(Nc1cc(Oc2cc(F)c(NC(=O)C3(C(=O)Nc4ccc(F)cc4)CC3)cc2F)ccn1)N1CCC(O)CC1 [Example 105]
0.015 µM	0.008 µM	O=C(Nc1cc(Oc2ccc(NC(=O)C3(C(=O)Nc4ccc(F)cc4)CC3)c(F)c2)ccn1)N1CCC1 [Example 61, N-[4-({2-[(Azetidin-1-ylcarbonyl)amino]pyridin-4-yl]oxy}-2-fluorophenyl]-N′-(4-fluorophenyl)cyclopropane-1,1-dicarboxamide]
0.017 µM	0.027 µM	CN(C)[C@H]1CCN(C(=O)Nc2cc(Oc3ccc(NC(=O)C4(C(=O)Nc5ccc(F)cc5)CC4)cc3F)ccn2)C1 [Example 24, N-(4-{[2-({[(3S)-3-(Dimethylamino)pyrrolidin-1-yl]carbonyl}amino)pyridin-4-yl]oxy}-3-fluorophenyl)-N′-(4-fluorophenyl)cyclopropane-1,1-dicarboxamide]
0.013 µM	0.018 µM	CN1CCC(N(C)C(=O)Nc2cc(Oc3ccc(NC(=O)C4(C(=O)Nc5ccc(F)cc5)CC4)cc3F)ccn2)CC1 [Example 1, N-(3-Fluoro-4-{[2-({[methyl(1-methylpiperidin-4-yl)amino]carbonyl}amino)pyridin-4-yl]oxy}phenyl)-N′-(4-fluorophenyl)cyclopropane-1.1-dicarboxamide]
0.012 µM	0.023 µM	CN1CCC(N2CCN(C(=O)Nc3cc(Oc4ccc(NC(=O)C5(C(=O)Nc6ccc(F)cc6)CC5)cc4F)ccn3)CC2)CC1 [Example 19, N-(3-Fluoro-4-{[2-({[4-(1-methylpiperidin-4-yl)piperazin-1-yl]carbonyl}amino)pyridin-4-yl]oxy}phenyl)-N′-(4-fluorophenyl)cyclopropane-1,1-dicarboxamide]
